# Patent US6781000B1, “Alpha-ketoamide inhibitors of 20S proteasome” (CV Theurapeutics, Inc., priority 1998, dated 2004)
# pIC50: −log10 of the molar value.
# Target: T1, chymotrypsin-like activity of 20S proteasome (Bos taurus, UniProt Q2TBX6+Q32KL2)
# T1 construct: was purified to homogeneity from bovine brain according to published methods; from tissue; host or cells: bovine brain
# Test: 20S proteasome chymotryptic activity inhibition assay (Suc-Leu-Leu-Val-Tyr-AMC cleavage)
# Type: biochemical
# Settings: 2 μg 20S proteasome from bovine brain, 50 μM fluorogenic substrate, 15 minutes at 37° C., pH7.5
# Experimental: Compounds of this invention prepared according to the method of Example 1 were tested as follows. The 20S catalytic subunit of the proteasome (also known as the multicatalytic proteinase complex) was purified to homogeneity from bovine brain according to published methods (Wilk S. and Orlowski,M 1983, 40 842 J.Neurochem). The chymotryptic activity of the complex is measured by the increase in fluorescence following cleavage of the substrate peptide succinyl-leucine-leucine-valine-tyrosine-7-amino-4methyl coumarin. The standard in vitro assay consists of 2 μg 20S proteasome, 0.1-100 μg/ml proteasome inhibitor in 200 μl 50 mM HEPES, containing 0.1% sodium dodecyl sulphate, pH7.5. The proteolytic reaction is initiated by the addition of 50 μM flourogenic peptide substrate and allowed to progress for 15 minutes at 37° C. The reaction is terminated by the addition of 100 μL of 100 mM acetate buffer, pH4.0. The rate of proteolysis is directly proportional to the amount of liberated aminomethylcoumarin which is measured by fluorescent spectroscopy (EX 370 nm, EM 430 nm).
Compound,pIC50,IC50 for the inhibition of the chymotrypsin-like activity of 20S proteasome
CC(C)CC(NC(=O)CCNC(=O)C(=O)Cc1c[nH]c2ccccc12)C(=O)NCC(=O)O (stereo not drawn) [Compound 53],< 4.65,
CCCCC(NC(=O)C(=O)Cc1c[nH]c2ccccc12)C(=O)NC(CC(C)C)C(=O)NCC(=O)O (stereo not drawn) [Compound 54],,>10 µg/mL
CC(C)CC(NC(=O)C(Cc1ccccc1)NC(=O)C(=O)Cc1c[nH]c2ccccc12)C(=O)NCC(=O)O (stereo not drawn) [Compound 55],,>10 µg/mL
CC(C)CC(NC(=O)C(NC(=O)C(=O)Cc1c[nH]c2ccccc12)C(C)O)C(=O)NCC(=O)O (stereo not drawn) [Compound 56],,>10 µg/mL
CC(C)CC(NC(=O)C(C)NC(=O)C(=O)Cc1c[nH]c2ccccc12)C(=O)NCC(=O)O (stereo not drawn) [Compound 57],,>10 µg/mL
CC(C)C[C@@H](NC(=O)[C@H](CC(=O)O)NC(=O)C(=O)Cc1c[nH]c2ccccc12)C(=O)NCC(=O)O [Compound 58],< 4.69,
CC(C)C[C@@H](NC(=O)[C@@H](NC(=O)C(=O)Cc1c[nH]c2ccccc12)C(C)C)C(=O)NCC(=O)O [Compound 59],< 4.67,
CCCC(NC(=O)C(=O)Cc1c[nH]c2ccccc12)C(=O)NC(CC(C)C)C(=O)NCC(=O)O (stereo not drawn) [Compound 60],,>10 µg/mL
CC(C)CC(NC(=O)C(Cc1ccc(O)cc1)NC(=O)C(=O)Cc1c[nH]c2ccccc12)C(=O)NCC(=O)O (stereo not drawn) [Compound 61],,>10 µg/mL
CCC(C)C(NC(=O)C(=O)Cc1c[nH]c2ccccc12)C(=O)NC(CC(C)C)C(=O)NCC(=O)O (stereo not drawn) [Compound 62],,>10 µg/mL
CC(C)CC(NC(=O)C(CC1CCCCC1)NC(=O)C(=O)Cc1c[nH]c2ccccc12)C(=O)NCC(=O)O (stereo not drawn) [Compound 63],,>10 µg/mL
CC(C)CC(NC(=O)C(Cc1cccnc1)NC(=O)C(=O)Cc1c[nH]c2ccccc12)C(=O)NCC(=O)O (stereo not drawn) [Compound 64],,>10 µg/mL
CC(C)CC(NC(=O)C(Cc1ccc2ccccc2c1)NC(=O)C(=O)Cc1c[nH]c2ccccc12)C(=O)NCC(=O)O (stereo not drawn) [Compound 65],,>10 µg/mL
CC(C)CC(NC(=O)C(Cc1ccc(-c2ccccc2)cc1)NC(=O)C(=O)Cc1c[nH]c2ccccc12)C(=O)NCC(=O)O (stereo not drawn) [Compound 66],,>10 µg/mL
CC(C)CC(NC(=O)CNC(=O)C(=O)Cc1c[nH]c2ccccc12)C(=O)NC(C)C(=O)O (stereo not drawn) [Compound 67],,>10 µg/mL
CC(C)CC(NC(=O)CCNC(=O)C(=O)Cc1c[nH]c2ccccc12)C(=O)NC(C)C(=O)O (stereo not drawn) [Compound 68],,>10 µg/mL
CCCCC(NC(=O)C(=O)Cc1c[nH]c2ccccc12)C(=O)NC(CC(C)C)C(=O)NC(C)C(=O)O (stereo not drawn) [Compound 69],,>10 µg/mL
CC(C)CC(NC(=O)C(Cc1ccccc1)NC(=O)C(=O)Cc1c[nH]c2ccccc12)C(=O)NC(C)C(=O)O (stereo not drawn) [Compound 70],,>10 µg/mL
CC(C)CC(NC(=O)C(NC(=O)C(=O)Cc1c[nH]c2ccccc12)C(C)O)C(=O)NC(C)C(=O)O (stereo not drawn) [Compound 71],,>10 µg/mL
CC(C)CC(NC(=O)C(C)NC(=O)OCc1c[nH]c2ccccc12)C(=O)NC(C)C(=O)O (stereo not drawn) [Compound 72],,>10 µg/mL
CC(C)CC(NC(=O)C(CC(=O)O)NC(=O)OCc1c[nH]c2ccccc12)C(=O)NC(C)C(=O)O (stereo not drawn) [Compound 73],,>10 µg/mL
CC(C)CC(NC(=O)C(NC(=O)C(=O)Cc1c[nH]c2ccccc12)C(C)C)C(=O)NC(C)C(=O)O (stereo not drawn) [Compound 74],,>10 µg/mL
CCCC(NC(=O)C(=O)Cc1c[nH]c2ccccc12)C(=O)NC(CC(C)C)C(=O)NC(C)C(=O)O (stereo not drawn) [Compound 75],< 4.69,
CC(C)CC(NC(=O)C(Cc1ccc(O)cc1)NC(=O)C(=O)Cc1c[nH]c2ccccc12)C(=O)NC(C)C(=O)O (stereo not drawn) [Compound 76],,>10 µg/mL

Compound,pIC50,IC50 for the inhibition of the chymotrypsin-like activity of 20S proteasome
CCC(C)C(NC(=O)C(=O)Cc1c[nH]c2ccccc12)C(=O)NC(CC(C)C)C(=O)NC(C)C(=O)O (stereo not drawn) [Compound 77],< 4.70,
CC(C)CC(NC(=O)C(CC1CCCCC1)NC(=O)C(=O)Cc1c[nH]c2ccccc12)C(=O)NC(C)C(=O)O (stereo not drawn) [Compound 78],,>10 µg/mL
CC(C)CC(NC(=O)C(Cc1cccnc1)NC(=O)C(=O)Cc1c[nH]c2ccccc12)C(=O)NC(C)C(=O)O (stereo not drawn) [Compound 79],,>10 µg/mL
CC(C)CC(NC(=O)C(Cc1ccc2ccccc2c1)NC(=O)C(=O)Cc1c[nH]c2ccccc12)C(=O)NC(C)C(=O)O (stereo not drawn) [Compound 80],,>10 µg/mL
CC(C)CC(NC(=O)C(Cc1ccc(-c2ccccc2)cc1)NC(=O)C(=O)Cc1c[nH]c2ccccc12)C(=O)NC(C)C(=O)O (stereo not drawn) [Compound 81],< 4.79,
CC(C)CC(NC(=O)CNC(=O)C(=O)Cc1c[nH]c2ccccc12)C(=O)NC(Cc1ccc(O)cc1)C(=O)O (stereo not drawn) [Compound 82],< 4.73,
CC(C)CC(NC(=O)C(NC(=O)C(=O)Cc1c[nH]c2ccccc12)C(C)O)C(=O)NC(Cc1ccc(O)cc1)C(=O)O (stereo not drawn) [Compound 83],,>10 µg/mL
CC(C)CC(NC(=O)CCNC(=O)C(=O)Cc1c[nH]c2ccccc12)C(=O)NC(Cc1ccc(O)cc1)C(=O)O (stereo not drawn) [Compound 84],,>10 µg/mL
CC(C)CC(NC(=O)C(=O)Cc1c[nH]c2ccccc12)C(=O)NC(CC(C)C)C(=O)NCC(=O)O (stereo not drawn) [Compound 85],,>10 µg/mL
CC(C)CC(NC(=O)C(=O)Cc1c[nH]c2ccccc12)C(=O)NC(CC(C)C)C(=O)NC(Cc1ccc(O)cc1)C(=O)O (stereo not drawn) [Compound 88],< 4.77,
CC(C)CC(NC(=O)CNC(=O)C(=O)Cc1c[nH]c2ccccc12)C(=O)NC(CO)C(=O)O (stereo not drawn) [Compound 89],,>10 µg/mL
CC(C)CC(NC(=O)CCNC(=O)C(=O)Cc1c[nH]c2ccccc12)C(=O)NC(CO)C(=O)O (stereo not drawn) [Compound 90],,>10 µg/mL
CCCC[C@H](NC(=O)C(=O)Cc1c[nH]c2ccccc12)C(=O)N[C@H](CC(C)C)C(=O)N[C@@H](CO)C(=O)O [Compound 91],< 4.71,
CC(C)CC(NC(=O)C(Cc1ccccc1)NC(=O)C(=O)Cc1c[nH]c2ccccc12)C(=O)NC(CO)C(=O)O (stereo not drawn) [Compound 92],,>10 µg/mL
CC(C)CC(NC(=O)C(NC(=O)C(=O)Cc1c[nH]c2ccccc12)C(C)O)C(=O)NC(CO)C(=O)O (stereo not drawn) [Compound 93],,>10 µg/mL
CC(C)CC(NC(=O)C(C)NC(=O)C(=O)Cc1c[nH]c2ccccc12)C(=O)NC(CO)C(=O)O (stereo not drawn) [Compound 94],,>10 µg/mL
CC(C)CC(NC(=O)C(CC(=O)O)NC(=O)C(=O)Cc1c[nH]c2ccccc12)C(=O)NC(CO)C(=O)O (stereo not drawn) [Compound 95],,>10 µg/mL
CC(C)CC(NC(=O)C(NC(=O)C(=O)Cc1c[nH]c2ccccc12)C(C)C)C(=O)NC(CO)C(=O)O (stereo not drawn) [Compound 96],,>10 µg/mL
CCCC(NC(=O)C(=O)Cc1c[nH]c2ccccc12)C(=O)NC(CC(C)C)C(=O)NC(CO)C(=O)O (stereo not drawn) [Compound 97],,>10 µg/mL
CC(C)CC(NC(=O)C(Cc1ccc(O)cc1)NC(=O)C(=O)Cc1c[nH]c2ccccc12)C(=O)NC(CO)C(=O)O (stereo not drawn) [Compound 98],,>10 µg/mL
CCC(C)C(NC(=O)C(=O)Cc1c[nH]c2ccccc12)C(=O)NC(CC(C)C)C(=O)NC(CO)C(=O)O (stereo not drawn) [Compound 99],,>10 µg/mL
CC(C)CC(NC(=O)C(CC1CCCCC1)NC(=O)C(=O)Cc1c[nH]c2ccccc12)C(=O)NC(CO)C(=O)O (stereo not drawn) [Compound 100],,>10 µg/mL
CC(C)CC(NC(=O)C(Cc1cccnc1)NC(=O)C(=O)Cc1c[nH]c2ccccc12)C(=O)NC(CO)C(=O)O (stereo not drawn) [Compound 101],,>10 µg/mL
CC(C)CC(NC(=O)C(Cc1ccc(-c2ccccc2)cc1)NC(=O)C(=O)Cc1c[nH]c2ccccc12)C(=O)NC(CO)C(=O)O (stereo not drawn) [Compound 103],,>10 µg/mL
